Results published in patent US20080063628A1, “METHODS TO PROMOTE CELL DIFFERENTIATION” (priority 2006, published 2008).

Test system: amniotic fluid-derived cells
Test: Chronic trichostatin A treatment, gene expression by RT-PCR (Example 4)
Format: cell-based, human
Protocol: Amniotic fluid derived cells were obtained according to the methods described in Example 14. Cells were seeded into a 24-well tissue culture plate at a density of 5000/cm^2 and cultured in AMNIOMAX (Invitrogen) under standard cell culture conditions until confluent. After the cells reached confluency, sample wells were treated with either 500 nM or 1.0 μM trichostatin A diluted in DMSO and medium; control wells were treated with an equivalent concentration of DMSO. At 24 hour intervals over the three day incubation period, cultures underwent a complete medium change, and a fresh dilution of trichostatin A or DMSO was added as appropriate.
RNA samples were obtained from the treated cultures at 24 hour intervals after the initial addition of trichostatin A or DMSO. The culture medium was removed, cells were washed with PBS, and RLT lysis buffer with P-mercaptoethanol (Qiagen) was added. RNA was purified using the RNeasy Mini Kit (Qiagen); RNA quantity and quality was determined using a spectrophotometer. cDNA was made using the iScript cDNA synthesis kit (BioRad).
Expression levels of Sox17, HNF-3 beta, Pdx-1, insulin, and glucagon were determined by RT-PCR. Samples of 20 ng cDNA were used in each reaction, performed on an Applied Biosystems 7500 according to the methods described in Example 15. Data were analyzed using the accompanying software. Human pancreas cDNA was included as a control. Results were normalized against GAPDH expression levels. Basal expression of insulin and Sox-17 genes was detectable in untreated amniotic fluid-derived cells. However, expression of glucagon and Pdx-1 genes was not detectable in untreated cells by RT-PCR up to cycle 40. HNF-3 beta was not detected in untreated cells at 24-hours in culture but was weakly expressed at 48 and 72 hours culture time.
Real-time PCR amplifcation and quantitative analysis. Unless otherwise stated, all reagents were purchased from Applied Biosystems. Real-time PCR reactions were performed using the ABI PRISM™ 7500 Sequence Detection System. TAQMAN™ FAST UNIVERSAL PCR MASTER MIX™ (ABI, CA) was used with 20 ng of reverse transcribed RNA in a total reaction volume of 20 μl. Each cDNA sample was run in duplicate to allow correction of pipetting errors. Primers and FAM-labeled TAQMAN™ probes were used at concentrations of 200 nM. The level of expression for each target gene was normalized using the pre-developed Applied Biosystem's human glyceraldehyde-3-phosphate dehydrogenase (GAPDH) endogenous control kit. Primers and probes were designed using either ABI PRISM PRIMER EXPRESS™ software or a pre-developed ABI gene analysis kit. For each gene, either one of the primers or the probe were designed to be exon-boundary spanning. This eliminated the possibility of the primers/probe binding to any genomic DNA present. The primer and probe sets are listed as follows: Pdx-1 (Hs00426216), Insulin (Hs00355773), glucagon (Hs00174967), and FoxA2 (HNF 3-beta) (Hs00232764). The remaining primers were designed using the PRIMERS program (ABI, CA). After an initial 95° C. incubation for 20 sec, samples were cycled 40 times in two stages: a denaturation step at 95° C. for 3 sec, followed by an annealing/extension step at 60° C. for 30 sec.
For each primer/probe set, a cycle time value was determined as the cycle number at which the fluorescence intensity of the PCR reaction reached a specific value in the middle of the exponential region of amplification. An increase in expression of a gene corresponded to a decrease in the number of cycles required for the fluorescence intensity to reach this value.

For CC(/C=C/C(=O)NO)=C\[C@@H](C)C(=O)c1ccc(N(C)C)cc1 [trichostatin A], the HNF-3 beta gene expression (500 nM renewed daily, 24 hours) was “+++ (detectable at less than 35 cycles by RT-PCR with std error less than 0.9)”, the Insulin gene expression (500 nM renewed daily, 24 hours) was “nd (not detectable at >40 cycles by RT-PCR)” and the PDX-1 gene expression (500 nM renewed daily, 24 hours) was “+++ (detectable at less than 35 cycles by RT-PCR with std error less than 0.9)”. For the same compound, the Sox17 gene expression (500 nM renewed daily, 24 hours) was “+++ (detectable at less than 35 cycles by RT-PCR with std error less than 0.9)”, the glucagon gene expression (500 nM renewed daily, 24 hours) was “+ (detectable between 35 and 40 cycles by RT-PCR)” and the HNF-3b gene expression (500 nM renewed daily, 48 hours) was “+++ (detectable at less than 35 cycles by RT-PCR with std error less than 0.9)”. The Insulin gene expression (500 nM renewed daily, 48 hours) was “nd (not detectable at >40 cycles by RT-PCR)”, the PDX-1 gene expression (500 nM renewed daily, 48 hours) was “+ (detectable between 35 and 40 cycles by RT-PCR)” and the Sox17 gene expression (500 nM renewed daily, 48 hours) was “+++ (detectable at less than 35 cycles by RT-PCR with std error less than 0.9)”. For the same compound, the glucagon gene expression (500 nM renewed daily, 48 hours) was “+ (detectable between 35 and 40 cycles by RT-PCR)”, the HNF-3b gene expression (500 nM renewed daily, 72 hours) was “+++ (detectable at less than 35 cycles by RT-PCR with std error less than 0.9)” and the Insulin gene expression (500 nM renewed daily, 72 hours) was “nd (not detectable at >40 cycles by RT-PCR)”. The PDX-1 gene expression (500 nM renewed daily, 72 hours) was “+++ (detectable at less than 35 cycles by RT-PCR with std error less than 0.9)”, the Sox17 gene expression (500 nM renewed daily, 72 hours) was “+++ (detectable at less than 35 cycles by RT-PCR with std error less than 0.9)” and the glucagon gene expression (500 nM renewed daily, 72 hours) was “+ (detectable between 35 and 40 cycles by RT-PCR)”. For the same compound, the HNF-3 beta gene expression (1 μM renewed daily, 24 hours) was “+++ (detectable at less than 35 cycles by RT-PCR with std error less than 0.9)”, the Insulin gene expression (1 μM renewed daily, 24 hours) was “nd (not detectable at >40 cycles by RT-PCR)” and the PDX-1 gene expression (1 μM renewed daily, 24 hours) was “+++ (detectable at less than 35 cycles by RT-PCR with std error less than 0.9)”. For the same compound, the Sox17 gene expression (1 μM renewed daily, 24 hours) was “+++ (detectable at less than 35 cycles by RT-PCR with std error less than 0.9)”, the glucagon gene expression (1 μM renewed daily, 24 hours) was “+++ (detectable at less than 35 cycles by RT-PCR with std error less than 0.9)” and the HNF-3b gene expression (1 μM renewed daily, 48 hours) was “+++ (detectable at less than 35 cycles by RT-PCR with std error less than 0.9)”. The Insulin gene expression (1 μM renewed daily, 48 hours) was “nd (not detectable at >40 cycles by RT-PCR)”, the PDX-1 gene expression (1 μM renewed daily, 48 hours) was “+++ (detectable at less than 35 cycles by RT-PCR with std error less than 0.9)” and the Sox17 gene expression (1 μM renewed daily, 48 hours) was “+++ (detectable at less than 35 cycles by RT-PCR with std error less than 0.9)”. For the same compound, the glucagon gene expression (1 μM renewed daily, 48 hours) was “++ (detectable at less than 35 cycles by RT-PCR with std error greater than 0.9)”, the HNF-3b gene expression (1 μM renewed daily, 72 hours) was “+++ (detectable at less than 35 cycles by RT-PCR with std error less than 0.9)” and the Insulin gene expression (1 μM renewed daily, 72 hours) was “nd (not detectable at >40 cycles by RT-PCR)”. For the same compound, the PDX-1 gene expression (1 μM renewed daily, 72 hours) was “+++ (detectable at less than 35 cycles by RT-PCR with std error less than 0.9)”, the Sox17 gene expression (1 μM renewed daily, 72 hours) was “+++ (detectable at less than 35 cycles by RT-PCR with std error less than 0.9)” and the glucagon gene expression (1 μM renewed daily, 72 hours) was “+++ (detectable at less than 35 cycles by RT-PCR with std error less than 0.9)”.
